{"source": "paper PMC8448535", "about": "(Bioorganic & Medicinal Chemistry, 2021)", "origin": "cited, not measured here", "key": {"ACE2": {"system": "ACE2", "conditions": "read-out: activity (inhibitory effect against ACE2)"}, "furin": {"system": "furin", "conditions": "database screening of pre-existing drugs"}, "[1]": {"system": "recombinant-human ACE (rhACE)", "conditions": "pIC50 of IC50 in mol/L"}, "[2]": {"system": "recombinant-human ACE2 (rhACE2)", "conditions": "pIC50 of IC50 in mol/L"}, "cell viability": {"system": "cell viability", "conditions": "in words"}, "influenza virus H3N2": {"system": "influenza virus H3N2", "conditions": "H3N2, 10 μM, at 24 h, compared to control"}}, "note": "Structures can show the parent of a compound that is named as a salt."}
{"compound": "NCCNCCN1CC1", "note": "[N-(2-aminoethyl)-1-aziridineethanamine]", "values": [{"measurement": "IC50", "setting": "ACE2", "value": "57 ± 7", "unit": "µM"}]}
{"compound": "CN(Cc1cnc2nc(N)nc(N)c2n1)c1ccc(C(=O)N[C@@H](CCC(=O)O)C(=O)O)cc1", "note": "[methotrexate]", "values": [{"measurement": "affinity for furin", "setting": "furin", "value": "good affinity"}]}
{"compound": "N=C(N)c1ccc(/N=N/Nc2ccc(C(=N)N)cc2)cc1", "note": "[diminazene]", "values": [{"measurement": "affinity for furin", "setting": "furin", "value": "good affinity"}]}
{"compound": "CC(C)CC(N[C@@H](Cc1cncn1Cc1cc(Cl)cc(Cl)c1)C(=O)O)C(=O)O", "note": "(stereo partly drawn) [MLN-4760-S/R]", "values": [{"measurement": "pIC50", "setting": "[1]", "value": "4.4 ± 0.2", "unit": "mol/L"}, {"measurement": "pIC50", "setting": "[2]", "value": "8.5 ± 0.1", "unit": "mol/L"}]}
{"compound": "Nc1nc(N)c2nc(CNc3ccc(C(=O)N[C@@H](CCC(=O)O)C(=O)O)cc3)cnc2n1", "note": "[aminopterin]", "values": [{"measurement": "affinity for furin", "setting": "furin", "value": "good affinity"}]}
{"compound": "N=C(N)c1cccc(C[C@H](NS(=O)(=O)c2cccc(-c3ccc(Cl)cc3Cl)c2)C(=O)N2CCC(CCN)CC2)c1", "note": "[compound 92]", "values": [{"measurement": "effect on cell viability", "setting": "cell viability", "value": "little to no effect"}, {"measurement": "decrease in virus titres", "setting": "influenza virus H3N2", "value": 100, "unit": "fold"}]}
{"compound": "CN(Cc1cc(Br)cc(Br)c1N)C1CCCCC1", "note": "[bromhexine]", "values": [{"measurement": "activity towards TMPRSS2", "setting": "TMPRSS2", "value": "good activity"}]}
{"compound": "CN(C)C(=O)COC(=O)Cc1ccc(OC(=O)c2ccc(NC(=N)N)cc2)cc1", "note": "[camostat mesylate]", "values": [{"measurement": "block of SARS-CoV from entering cells", "setting": "SARS-CoV", "value": 65, "unit": "%"}]}
{"compound": "N=C(N)c1cccc(C[C@H](NS(=O)(=O)c2cccc(-c3ccc(Cl)cc3Cl)c2)C(=O)N2CCC(NC(=O)NC3CCCCC3)CC2)c1", "note": "[compound 114]", "values": [{"measurement": "effect on cell viability", "setting": "cell viability", "value": "little to no effect"}]}
{"compound": "CC(C)C[C@@H](N[C@@H](Cc1cncn1Cc1cc(Cl)cc(Cl)c1)C(=O)O)C(=O)O", "note": "[MLN-4760-R]", "values": [{"measurement": "pIC50", "setting": "[1]", "value": "4.4 ± 0.3", "unit": "mol/L"}, {"measurement": "pIC50", "setting": "[2]", "value": "8.9 ± 0.1", "unit": "mol/L"}]}
{"compound": "COc1cc(C2Oc3cc([C@H]4Oc5cc(O)cc(O)c5C(=O)[C@@H]4O)ccc3OC2CO)ccc1O", "note": "(stereo partly drawn) [silybin]", "values": [{"measurement": "affinity for furin", "setting": "furin", "value": "good affinity"}]}
{"compound": "angiotensin-III (RVYIHPF; Angiotensin 3; UniProt P01019 26-32, looked up) [Ang-III]", "values": [{"measurement": "vasopressor efficacy relative to Ang-II", "value": 40, "unit": "%"}]}
